# Results from paper PMC11254172 (International Journal for Parasitology: Drugs and Drug …, 2024).
# Read-outs that look alike come from different tables or passages of the source.
# What was measured:
# Tg-β-gal tachyzoites = experiment: In vitro proliferation assay with T. gondii β-gal tachyzoites in HFF monolayers; format: cell-based, Toxoplasma gondii; conditions: read at 72 h post-infection
# Protocol: (§1) N. caninum strain NcSpain-7 and the transgenic strain N. caninum Nc1 expressing β-galactosidase (Nc-β-gal) were grown and maintained in HFF ([Aguado-Martínez et al., 2016]). T. gondii ME49 and T. gondii β-gal tachyzoites (RH background, Tg-β-gal) were cultured as previously described ([Winzer et al., 2015]). T. gondii oocysts of the type II isolate T. gondii sheep Spain 1 (TgShSp1) were generated at the Complutense University of Madrid, Spain, and were stored at 4 °C ([Sánchez-Sánchez et al., 2019]).
# (§2) The effects of the compound on HFF viability were assessed by resazurin reduction assay, following the protocols of previous studies ([Anghel et al., 2020]).
# Nc-β-gal tachyzoites = experiment: In vitro proliferation assay with N. caninum β-gal tachyzoites in HFF monolayers; format: cell-based, Neospora caninum; conditions: read at 72 h post-infection
# Protocol: as §1, §2
# [1] = tested on: N. caninum NcSpain-7 tachyzoites; conditions: in vivo
# Protocol: A total of 57 BALB/c mice were used: 38 females and 19 males, all 8 weeks old. […] For the infection, NcSpain-7 tachyzoites were cultured in HFF at 37 °C/5% CO₂ and transferred to BALB/c fibroblasts to be grown under the same conditions for three days prior to infection. Parasites were then collected and counted, and each mouse was infected by subcutaneous injection with 10⁵ NcSpain-7 tachyzoites suspended in 100 μL PBS ([Arranz-Solís et al., 2015]). Infection took place on day 7 post-mating. Pregnant and non-pregnant mice were separated as described for the toxoplasmosis model and evaluated for clinical signs and mortality rates. Pregnant mice gave birth on days 20–23 post-mating. […]
# Brains of adult mice and surviving pups were collected directly after sacrifice and parasitic load was quantified by real-time PCR specific for T. gondii ([Costa et al., 2000]) and N. caninum ([Müller et al., 2002]). […] DNA was extracted from all samples using the Nucleospin Kit (Macherey-Nagel, Oensingen, Switzerland) and QuantiFluor dsDNA System (Promega, Madison, Wi, USA) was used to determine the DNA concentration. […] Quantitative real-time PCR was performed using the Light Cycler® System (Roche, Basel, Switzerland). Parasite load was calculated by interpolation from a standard curve of DNA samples from 1000, 100 and 10 T. gondii or N. caninum tachyzoites included in each run. […]
# T. gondii oocysts = tested on: T. gondii oocysts; set-up: method as in Müller et al., 2017b; conditions: 50 mg/kg/day for 5 days; ref Müller et al., 2017b; cited from earlier work
# N. caninum = conditions: 50 mg/kg/day for 6 days; ref Winzer et al., 2015; cited from earlier work
# T. gondii = conditions: cited from earlier work
smiles,measurement,setting,value
CC(C)(CO)Cn1nc(-c2ccc3cc(OC4CC4)ccc3c2)c(C(N)=O)c1N [BKI-1708],IC50,"Tg-β-gal tachyzoites; Toxoplasma gondii, 72 h, read-out: IC50 Tg-β-gal Pre-infection, compound added concomitantly to infection of HFF",0.12 µM
same,IC50,"Tg-β-gal tachyzoites; Toxoplasma gondii, read-out: IC50 Tg-β-gal Post-infection, compound added 3 h after infection of HFF",0.327 µM
same,IC50,"Tg-β-gal tachyzoites; read-out: IC50 Tg-β-gal Pre-infection, compound added concomitantly to infection of HFF",0.122 µM
same,IC50,"Nc-β-gal tachyzoites; Neospora caninum, 72 h, read-out: IC50 Nc-β-gal Pre-infection, compound added concomitantly to infection of HFF",0.48 µM
same,IC50,"Nc-β-gal tachyzoites; Neospora caninum, read-out: IC50 Nc-β-gal Post-infection, compound added 3 h after infection of HFF",0.964 µM
same,IC50,"Nc-β-gal tachyzoites; read-out: IC50 Nc-β-gal Pre-infection, compound added concomitantly to infection of HFF",0.481 µM
same,Vertical transmission rate (%),[1],38%
CCOc1ccc2cc(-c3nn(CC4CCN(C)CC4)c4ncnc(N)c34)ccc2c1 [BKI-1294],Pups with detectable T. gondii DNA in their brain (%),T. gondii oocysts,7%
same,Pups with detectable T. gondii DNA in their brain (number),T. gondii oocysts,4 out of 55
same,Pup survival rate,N. caninum,80%
CC(C)(C)n1nc(Cc2cccc3ccccc23)c2c(N)ncnc21 [1NM-PP1],Morphological effect on T. gondii,"T. gondii; ref Sugi et al., 2016",Multinucleated forms
N#CC(c1ccc(Cl)cc1)c1c(Cl)cc(-n2ncc(=O)[nH]c2=O)cc1Cl (stereo not drawn) [diclazuril],Morphological effect on T. gondii,"T. gondii; ref Lindsay et al., 1995",formation of multinucleated forms
